Tests used:
intact ZIKV particles [1] = assay: Direct ELISA matrix effect in urine and serum; type: binding, Zika virus (ZIKV); conditions: urine diluted 1:1, serum 1:10; 10^5 and 10^6 copies/mL ZIKV coated
Experimental: Usually, the presence of ZIKV in affected bodies is detected in biological fluids. Therefore, the analytical sensitivity of the selected peptides was tested in two biological matrices, namely, urine and serum. The matrix effect was investigated to understand how real biological fluids could modify the binding efficiency of the peptides.
FIG. 4 depicts the ELISA data using solutions of peptides with or without the urine and serum obtained coating clear 96-well plates with 10^^5 and 10^^6 copies/mL of intact ZIKV particles. Urine and serum were 1:1 and 1:10 diluted, respectively, with a concentrated peptide PBS solution (10 mM PBS, pH 7.4) to obtain a peptide final concentration of 0.5 μM for C3 and C6, 5 μM for C7 and 20 μM for mono-arm peptides (P2 and X1).

DENV-3 = assay: Direct ELISA cross-reactivity study, DENV-3; type: binding, Dengue virus (DENV); conditions: plates coated with 10^5 copies/mL of intact virus particles
Experimental: (§1) To optimize all parameters of the direct ELISA protocol, Pierce 96-Well Polystyrene Plates, (ThermoFisher Scientific) were coated overnight at 4° C. with different concentrations of intact virus particles (ZIKV or DENV). The intact virus particles were diluted using 100 mM NaHCO3, pH 9.6, and aliquots of 100 μL were dispensed into each well of the plate using a multichannel pipette. This buffer pH assured a strong hydrophobic binding interaction between polystyrene and virus particles.
(§2) Intact particles both ZIKV and DENV were provided by Dr. Watkins group (University of Miami, Dep. of Pathology). The samples were controlled and counted by focus forming assay and RT-PCR, the details were reported in a previous work (Magnani et al., 2017). The Intact particles of ZIKV were inactivated using gamma irradiation. Assay biohazardous steps were carried out according to standard safety procedures.
(§3) The cross-reactivity among Flaviviruses is a key parameter to be tested for this assay. Using the same ELISA protocol, the three clamp peptides (C3, C6 and C7) with higher sensitivity versus the intact ZIKV particles where employed to test the ability to discriminate ZIKV from the three serotypes of DENV (DENV-1, -2 and -3).
(§4) The results shown in FIG. 4 were obtained by coating clear 96-well plates with a solution of 10^^5 copies/mL of intact virus particles. […]

DENV-2 = assay: Direct ELISA cross-reactivity study, DENV-2; type: binding, Dengue virus (DENV); conditions: plates coated with 10^5 copies/mL of intact virus particles
Experimental: as §1, §2, §3, §4

intact ZIKV particles [2] = assay: Direct ELISA of biotinylated peptides vs intact ZIKV particles; type: binding, Zika virus (ZIKV); conditions: dose-response curves
Experimental: as §1, §2
After coating the plates overnight, the intact virus particles were removed by washing five times with the washing buffer (PBST) 10 mM PBS pH 7.4, 0.1% Tween-20, using an automated plate washer (MultiWash+, Molecular Devices, Sunnyvale, Calif.). Then, the plates were blocked with 200 μL of blocking buffers while shaking at 300 rpm at room temperature. The blocking buffers used were: Pierce™ Protein-Free (PBS) Blocking Buffer (PF), Blocker™ BLOTTO in TBS, SuperBlock™ Blocking Buffer, Blocker™ BSA (1×) in PBS. All blocking buffer were from ThermoFisher Scientific.
After 2 h the blocking buffers were removed using the same washing procedure mentioned above. 100 μL-aliquots of several dilutions of peptides biotinylated in 10 mM PBS pH 7.4 were placed in each well and incubated for 2 h while shaking at 300 rpm at room temperature. After the incubation, the unreacted peptides were removed by using the plate washer with the same settings. Then, 100 μL-aliquots of streptavidin-HRP (ThermoFisher Scientific) at a concentration of 20 ng/mL were added into each well and incubated for 30 min at room temperature without shaking. After the incubation, excess streptavidin-HRP was removed and the wells were washed with the plate washer five times using the washing buffer. Finally, 100 μL-aliquots of the Ultra TMB-ELISA Substrate Solution (ThermoFisher Scientific) were added and after 10 min the reaction was stopped by adding 100 μL aliquots of the TMB stop solution (SeraCare). The emission (450 nm) was read using a microplate reader (Clariostar Optima; BMG Labtech, Ortenberg, Germany).
The corresponding blank signals in triplicates were obtained by using all reagents without peptides. The blank signal was then subtracted to the average absorbance values for triplicate wells of each test. […]

[3] = test system: three serotypes of DENV (DENV-1, -2 and -3); assay: Direct ELISA cross-reactivity study, ZIKV vs DENV; type: binding, Dengue virus (DENV); conditions: all DENV serotypes; plates coated with 10^5 copies/mL of intact virus particles
Experimental: as §1, §2, §3, §4

Substance | performance in urine and serum (intact ZIKV particles [1]) | signal decrease, DENV-3 relative to ZIKV (DENV-3) | signal decrease, DENV-2 relative to ZIKV (DENV-2) | dynamic range width (orders of magnitude) (intact ZIKV particles [2]) | signal decrease, DENV relative to ZIKV [3]
C6: clamp peptide: AGRRP (20) - bridge GPGCCGPG (32) - LRGHA (25) (AGRRPGPGCCGPGLRGHA; C5 Binds to Active Site 2; Bridge peptide; C2 Binds to Active Site 1) | strong decrease in the signal | 55% | 45% | three-order of magnitude dynamic range | 
C-SWPGQ (CSWPGQ; P1) [mono-arm pentapeptide with N-terminal cysteine] |  |  |  | one order of magnitude dynamic range | 
C3: clamp peptide: WPWIGT (18) - bridge GPGCCGPG (32) - KRNATP (26) (WPWIGTGPGCCGPGKRNATP; C3 Binds to Active Site 2; Bridge peptide; C3 Binds to Active Site 1) | better performance in urine than serum |  |  | three-order of magnitude dynamic range | around 70%
C7: clamp peptide: MDSPIK (22) - bridge GPGCCGPG (32) - KRNATP (26) (MDSPIKGPGCCGPGKRNATP; C7 Binds to Active Site 2; Bridge peptide; C3 Binds to Active Site 1) | best performance among the three clamp peptides, having higher signals in serum than in urine |  |  | three-order of magnitude dynamic range | around 70%

Reference: patent US11249082B2, “Zika virus assay systems” (UNIVERSITY OF MIAMI, priority 2016, dated 2022)
